Here are results for 1 compound from BindingDB's records for doi:10.1016/j.ejmech.2016.03.016 (Peking University, 2016).

This assay has as its target Neuronal acetylcholine receptor subunit alpha-7 (Homo sapiens, UniProt P36544). Briefly: Agonist activity at human alpha7 nAChR expressed in xenopus oocytes preincubated for 10 mins followed by acetylcholine addition by patch clamp electrophysiological assay. In general terms: Patch clamp records ionic current or voltage across a cell membrane.

The EC50 is the concentration at which the effect is half-maximal. A higher EC50 goes with weaker potency.

Neuronal acetylcholine receptor subunit alpha-7, sequence (P36544 whole entry): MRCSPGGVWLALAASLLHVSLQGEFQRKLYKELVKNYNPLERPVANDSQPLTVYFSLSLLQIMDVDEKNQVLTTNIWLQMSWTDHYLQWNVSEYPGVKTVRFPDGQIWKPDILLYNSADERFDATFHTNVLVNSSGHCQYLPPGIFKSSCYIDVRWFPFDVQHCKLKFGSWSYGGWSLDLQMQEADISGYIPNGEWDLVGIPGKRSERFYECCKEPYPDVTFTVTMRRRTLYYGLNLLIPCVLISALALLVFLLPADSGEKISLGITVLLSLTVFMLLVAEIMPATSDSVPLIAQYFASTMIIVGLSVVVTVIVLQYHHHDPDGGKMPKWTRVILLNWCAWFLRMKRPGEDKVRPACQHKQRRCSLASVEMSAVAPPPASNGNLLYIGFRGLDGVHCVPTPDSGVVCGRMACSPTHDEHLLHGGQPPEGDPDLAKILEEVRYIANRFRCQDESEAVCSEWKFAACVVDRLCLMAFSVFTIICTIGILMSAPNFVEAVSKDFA

`O=C(N[C@H]1CN2CCC1CC2)c1cc2cccc(Br)n2c1` returned an EC50 of 1.78 µM.
